Molecular target: T1, human OX2 receptor (Homo sapiens, UniProt O43614)
T1 construct: expressed in transfected cells
T1 sequence (O43614 1-444): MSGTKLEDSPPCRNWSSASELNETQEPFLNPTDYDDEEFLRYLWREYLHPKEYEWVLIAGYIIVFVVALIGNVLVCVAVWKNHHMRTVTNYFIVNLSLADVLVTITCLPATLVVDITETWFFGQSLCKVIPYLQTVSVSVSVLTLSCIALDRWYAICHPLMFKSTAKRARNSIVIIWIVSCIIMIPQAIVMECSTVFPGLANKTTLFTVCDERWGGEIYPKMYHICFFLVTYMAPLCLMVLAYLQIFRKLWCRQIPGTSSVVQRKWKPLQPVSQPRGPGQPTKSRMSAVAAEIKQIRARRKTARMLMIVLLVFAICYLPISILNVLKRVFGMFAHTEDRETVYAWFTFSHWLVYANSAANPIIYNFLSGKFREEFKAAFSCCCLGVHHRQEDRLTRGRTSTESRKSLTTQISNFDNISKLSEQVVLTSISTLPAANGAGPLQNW
Experiment: Measurement of orexin type 2 receptor agonist activity (calcium fluorescence, Fluo-4, FDSS)
Type: cell-based
Settings: 3 uM test compound; CHO cells expressing human OX2 receptor; DMSO = 0%, 10 nM orexin A (human) = 100%
How it was run: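 Agonist activity (%) was normalised to the response to 10 nM final human orexin A (100%) and to the DMSO vehicle (0%). The response was measured as the Fluo-4 calcium signal, read kinetically over 1 min 40 s after compound addition to Fluo-4/probenecid-loaded stable CHO-K1 clones expressing human OX2 (aa 1-444).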

OX2R agonist activity (3 uM, %) | SMILES
100% | COc1cc(-c2c(F)cc(F)cc2F)c2c(N3CC[C@H]4N(C[C@@H](NS(=O)(=O)C5CC5)C4(F)F)C3=O)noc2n1 [Example 308, N-{(4aR,6R)-5,5-difluoro-2-[6-methoxy-4-(2,4,6-trifluorophenyl)[1,2]oxazolo[5,4-b]pyridin-3-yl]-1-oxooctahydropyrrolo[1,2-c]pyrimidin-6-yl}cyclopropanesulfonamide]
107% | CCS(=O)(=O)N[C@@H]1Cn2c(cn(-c3noc4nc(OC)cc(-c5c(F)cc(F)cc5F)c34)c2=O)C1(F)F [Example 309, N-{(6R)-7,7-difluoro-2-[6-methoxy-4-(2,4,6-trifluorophenyl)[1,2]oxazolo[5,4-b]pyridin-3-yl]-3-oxo-2,5,6,7-tetrahydro-3H-pyrrolo[1,2-c]imidazol-6-yl}ethanesulfonamide]
100% | CNS(=O)(=O)N[C@@H]1CN2C(=O)N(c3noc4cc(F)cc(-c5c(F)cccc5F)c34)C[C@@H]2C1(F)F [Example 310, N-{(6R,7aR)-2-[4-(2,6-difluorophenyl)-6-fluoro-1,2-benzoxazol-3-yl]-7,7-difluoro-3-oxohexahydro-1H-pyrrolo[1,2-c]imidazol-6-yl}-N′-methylsulfuric diamide]
99% | CCS(=O)(=O)N[C@@H]1CN2C(=O)N(c3noc4cc(F)c(F)c(-c5c(F)cccc5F)c34)CC[C@@H]2C1(F)F [Example 311, N-{(4aR,6R)-2-[4-(2,6-difluorophenyl)-5,6-difluoro-1,2-benzoxazol-3-yl]-5,5-difluoro-1-oxooctahydropyrrolo[1,2-c]pyrimidin-6-yl}ethanesulfonamide]
100% | O=C1N(c2noc3cc(F)c(F)c(-c4c(F)cccc4F)c23)CC[C@H]2N1C[C@@H](NS(=O)(=O)C1CC1)C2(F)F [Example 312, N-{(4aR,6R)-2-[4-(2,6-difluorophenyl)-5,6-difluoro-1,2-benzoxazol-3-yl]-5,5-difluoro-1-oxooctahydropyrrolo[1,2-c]pyrimidin-6-yl}cyclopropanesulfonamide]
99% | O=C1N(c2noc3cc(F)c(F)c(-c4c(F)cccc4F)c23)CC[C@H]2N1C[C@@H](NS(=O)(=O)CF)C2(F)F [Example 313, N-{(4aR,6R)-2-[4-(2,6-difluorophenyl)-5,6-difluoro-1,2-benzoxazol-3-yl]-5,5-difluoro-1-oxooctahydropyrrolo[1,2-c]pyrimidin-6-yl}-1-fluoromethanesulfonamide]
113% | CS(=O)(=O)N[C@@H]1CN2C(=O)N(c3noc4cc(F)cc(-c5c(F)cccc5F)c34)CC[C@@H]2C1(F)F [Example 314, N-{(4aR,6R)-2-[4-(2,6-difluorophenyl)-6-fluoro-1,2-benzoxazol-3-yl]-5,5-difluoro-1-oxooctahydropyrrolo[1,2-c]pyrimidin-6-yl}methanesulfonamide]
105% | CCS(=O)(=O)N[C@@H]1CN2C(=O)N(c3noc4nc(OC)cc(-c5c(F)cc(F)cc5F)c34)CC[C@@H]2C1(F)F [Example 315, N-{(4aR,6R)-5,5-difluoro-2-[6-methoxy-4-(2,4,6-trifluorophenyl)[1,2]oxazolo[5,4-b]pyridin-3-yl]-1-oxooctahydropyrrolo[1,2-c]pyrimidin-6-yl}ethanesulfonamide]
105% | O=C1N(c2noc3cc(OC(F)F)cc(-c4c(F)cc(F)cc4F)c23)CC[C@H]2N1C[C@@H](NS(=O)(=O)C1CC1)C2(F)F [Example 316, N-{(4aR,6R)-2-[6-(difluoromethoxy)-4-(2,4,6-trifluorophenyl)-1,2-benzoxazol-3-yl]-5,5-difluoro-1-oxooctahydropyrrolo[1,2-c]pyrimidin-6-yl}cyclopropanesulfonamide]
110% | CS(=O)(=O)N[C@H]1C[C@H]2CCN(c3noc4cccc(-c5c(F)cccc5F)c34)C(=O)N2C1 [Example 317, N-{(4aR,6S)-2-[4-(2,6-difluorophenyl)-1,2-benzoxazol-3-yl]-1-oxooctahydropyrrolo[1,2-c]pyrimidin-6-yl}methanesulfonamide]
105% | O=C1N(c2noc3cc(F)cc(-c4ncc(F)cc4F)c23)CC[C@H]2N1C[C@@H](NS(=O)(=O)C1CC1)C2(F)F [Example 318, N-{(4aR,6R)-2-[4-(3,5-difluoropyridin-2-yl)-6-fluoro-1,2-benzoxazol-3-yl]-5,5-difluoro-1-oxooctahydropyrrolo[1,2-c]pyrimidin-6-yl}cyclopropanesulfonamide]
107% | O=C1N(c2noc3cccc(-c4ncc(F)cc4F)c23)CC[C@H]2N1C[C@@H](NS(=O)(=O)C1CC1)C2(F)F [Example 319, N-{(4aR,6R)-2-[4-(3,5-difluoropyridin-2-yl)-1,2-benzoxazol-3-yl]-5,5-difluoro-1-oxooctahydropyrrolo[1,2-c]pyrimidin-6-yl}cyclopropanesulfonamide]
104% | CS(=O)(=O)N[C@@H]1CN2C(=O)N(c3noc4cccc(-c5ncc(F)cc5F)c34)CC[C@@H]2C1(F)F [Example 320, N-{(4aR,6R)-2-[4-(3,5-difluoropyridin-2-yl)-1,2-benzoxazol-3-yl]-5,5-difluoro-1-oxooctahydropyrrolo[1,2-c]pyrimidin-6-yl}methanesulfonamide]
108% | CCS(=O)(=O)N[C@@H]1CN2C(=O)N(c3noc4cccc(-c5ncc(F)cc5F)c34)CC[C@@H]2C1(F)F [Example 321, N-{(4aR,6R)-2-[4-(3,5-difluoropyridin-2-yl)-1,2-benzoxazol-3-yl]-5,5-difluoro-1-oxooctahydropyrrolo[1,2-c]pyrimidin-6-yl}ethanesulfonamide]
99% | CCS(=O)(=O)N[C@@H]1CN2C(=O)N(c3noc4cccc(-c5ccccc5OC)c34)CC[C@@H]2C1(F)F [Example 322, N-{(4aR,6R)-5,5-difluoro-2-[4-(2-methoxyphenyl)-1,2-benzoxazol-3-yl]-1-oxooctahydropyrrolo[1,2-c]pyrimidin-6-yl}ethanesulfonamide]
97% | CCS(=O)(=O)N[C@@H]1CN2C(=O)N(c3noc4cccc(-c5ccc(F)cc5C)c34)CC[C@@H]2C1(F)F [Example 323, N-{(4aR,6R)-5,5-difluoro-2-[4-(4-fluoro-2-methylphenyl)-1,2-benzoxazol-3-yl]-1-oxooctahydropyrrolo[1,2-c]pyrimidin-6-yl}ethanesulfonamide]
97% | CCS(=O)(=O)N[C@@H]1CN2C(=O)N(c3noc4cccc(-c5ccco5)c34)CC[C@@H]2C1(F)F [Example 324, N-{(4aR,6R)-5,5-difluoro-2-[4-(furan-2-yl)-1,2-benzoxazol-3-yl]-1-oxooctahydropyrrolo[1,2-c]pyrimidin-6-yl}ethanesulfonamide]
101% | CCS(=O)(=O)N[C@@H]1CN2C(=O)N(c3noc4cccc(-c5ccccc5C)c34)CC[C@@H]2C1(F)F [Example 325, N-{(4aR,6R)-5,5-difluoro-2-[4-(2-methylphenyl)-1,2-benzoxazol-3-yl]-1-oxooctahydropyrrolo[1,2-c]pyrimidin-6-yl}ethanesulfonamide]
